{"source": "paper PMC9844538", "about": "(Nature chemical biology, 2022)", "key": {"[1]": {"system": "M. tuberculosis H37Rv mc^26020", "assay": "Time-dependent killing", "assay_type": "cell-based, Mycobacterium tuberculosis"}, "[2]": {"system": "HepG2"}, "[3]": {"system": "commensal bacteria, including Lactobacillus sp. and Bacteroides sp.", "assay": "Activity against commensal bacteria", "assay_type": "cell-based"}, "[4]": {"system": "E. coli WO153", "assay": "Macromolecule incorporation assay", "assay_type": "cell-based, Escherichia coli", "conditions": "8x MIC of evybactin"}, "[5]": {"molecular_target": "E. coli gyrase (Escherichia coli, UniProt P0AES4+P0AES6)", "assay": "Supercoiling assay", "assay_type": "biochemical", "conditions": "100 μM evybactin, 0–20 nM enzyme, strong cleavage visible at 5 nM enzyme"}, "[6]": {"system": "FaDu"}, "[7]": {"molecular_target": "T1, M. tuberculosis gyrase (MtbGyrase) (Mycobacterium tuberculosis, UniProt P9WG45+P9WG47)", "T1 sequence (P9WG45 whole entry, looked up)": "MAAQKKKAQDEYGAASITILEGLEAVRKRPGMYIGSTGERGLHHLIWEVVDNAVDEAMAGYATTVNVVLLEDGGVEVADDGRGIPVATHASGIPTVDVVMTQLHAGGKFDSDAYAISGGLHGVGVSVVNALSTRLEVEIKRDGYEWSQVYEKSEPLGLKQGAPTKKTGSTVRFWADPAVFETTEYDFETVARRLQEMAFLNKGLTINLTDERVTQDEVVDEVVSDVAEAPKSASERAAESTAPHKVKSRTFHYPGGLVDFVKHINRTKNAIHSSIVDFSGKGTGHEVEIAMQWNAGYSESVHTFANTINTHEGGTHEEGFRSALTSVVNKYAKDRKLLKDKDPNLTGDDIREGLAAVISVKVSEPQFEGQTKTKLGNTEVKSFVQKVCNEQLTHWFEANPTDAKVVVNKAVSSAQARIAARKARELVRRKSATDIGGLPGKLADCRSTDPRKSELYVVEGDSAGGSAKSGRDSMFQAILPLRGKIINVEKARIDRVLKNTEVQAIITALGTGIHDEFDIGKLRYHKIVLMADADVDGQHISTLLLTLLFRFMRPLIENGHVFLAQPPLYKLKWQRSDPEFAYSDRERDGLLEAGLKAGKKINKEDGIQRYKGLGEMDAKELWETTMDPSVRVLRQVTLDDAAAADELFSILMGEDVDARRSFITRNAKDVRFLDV", "T1 sequence (P9WG47 whole entry, looked up)": "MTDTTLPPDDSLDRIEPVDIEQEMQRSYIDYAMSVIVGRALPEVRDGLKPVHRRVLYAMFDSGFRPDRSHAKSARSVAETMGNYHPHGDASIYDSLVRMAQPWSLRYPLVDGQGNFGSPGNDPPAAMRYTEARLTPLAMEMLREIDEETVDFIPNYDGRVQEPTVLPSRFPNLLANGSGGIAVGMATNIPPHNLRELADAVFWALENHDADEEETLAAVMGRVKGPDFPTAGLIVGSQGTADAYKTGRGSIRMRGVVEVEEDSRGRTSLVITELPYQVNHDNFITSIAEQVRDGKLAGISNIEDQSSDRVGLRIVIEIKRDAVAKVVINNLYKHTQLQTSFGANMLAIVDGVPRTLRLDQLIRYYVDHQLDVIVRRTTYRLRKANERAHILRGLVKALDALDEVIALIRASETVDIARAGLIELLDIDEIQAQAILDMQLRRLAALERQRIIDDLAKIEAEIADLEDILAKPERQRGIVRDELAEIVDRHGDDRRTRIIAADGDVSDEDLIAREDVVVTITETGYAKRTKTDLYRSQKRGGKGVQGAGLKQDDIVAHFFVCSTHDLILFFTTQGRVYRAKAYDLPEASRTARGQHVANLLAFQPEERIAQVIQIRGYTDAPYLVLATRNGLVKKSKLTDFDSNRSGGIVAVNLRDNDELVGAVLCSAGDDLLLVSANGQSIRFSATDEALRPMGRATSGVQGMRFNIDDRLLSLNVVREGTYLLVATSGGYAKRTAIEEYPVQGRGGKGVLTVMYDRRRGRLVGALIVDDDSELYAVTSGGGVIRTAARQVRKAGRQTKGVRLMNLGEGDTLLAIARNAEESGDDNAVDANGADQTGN", "assay": "Supercoiling assay", "assay_type": "biochemical"}, "[8]": {"molecular_target": "T1, M. tuberculosis gyrase (MtbGyrase)", "assay_type": "biochemical", "conditions": "no ATP"}, "[9]": {"assay": "Solubility in water"}, "[10]": {"system": "mouse", "assay": "Toxicity in a mouse", "assay_type": "in vivo", "conditions": "intraperitoneally, 100 mg kg^−1, survival observed for 24 hours"}, "[11]": {"system": "M. tuberculosis H37Rv mc^26020", "assay": "Vitamin B12 competition assay", "assay_type": "cell-based, Mycobacterium tuberculosis", "conditions": "1,000-fold molar excess of vitamin B12, 7 days, 37 °C"}, "[12]": {"system": "M. tuberculosis", "assay": "Cell elongation, microscopy", "assay_type": "cell-based, Mycobacterium tuberculosis"}, "[13]": {"system": "HEK293"}, "[14]": {"molecular_target": "E. coli topo IV (Escherichia coli, UniProt P0AFI2+P20083)", "sequence (P0AFI2 whole entry)": "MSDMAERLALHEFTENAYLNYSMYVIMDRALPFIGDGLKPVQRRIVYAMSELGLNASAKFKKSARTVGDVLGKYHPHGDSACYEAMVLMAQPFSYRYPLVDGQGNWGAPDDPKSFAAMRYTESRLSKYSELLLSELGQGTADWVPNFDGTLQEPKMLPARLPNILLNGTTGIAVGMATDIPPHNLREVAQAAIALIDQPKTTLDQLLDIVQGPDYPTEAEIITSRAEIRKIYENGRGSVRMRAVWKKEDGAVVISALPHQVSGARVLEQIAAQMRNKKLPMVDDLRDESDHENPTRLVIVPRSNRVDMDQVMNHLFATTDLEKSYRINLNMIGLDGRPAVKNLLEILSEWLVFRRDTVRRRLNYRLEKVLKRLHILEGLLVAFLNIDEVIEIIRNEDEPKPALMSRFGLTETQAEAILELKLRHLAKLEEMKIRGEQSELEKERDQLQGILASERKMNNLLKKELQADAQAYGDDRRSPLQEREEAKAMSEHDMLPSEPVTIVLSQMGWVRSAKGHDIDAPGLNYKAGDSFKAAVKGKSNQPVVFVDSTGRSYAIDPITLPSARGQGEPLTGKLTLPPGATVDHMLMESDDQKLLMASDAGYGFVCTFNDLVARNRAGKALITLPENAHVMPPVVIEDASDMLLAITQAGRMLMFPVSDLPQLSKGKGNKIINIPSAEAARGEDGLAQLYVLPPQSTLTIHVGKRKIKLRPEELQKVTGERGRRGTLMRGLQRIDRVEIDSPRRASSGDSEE", "sequence (P20083 whole entry)": "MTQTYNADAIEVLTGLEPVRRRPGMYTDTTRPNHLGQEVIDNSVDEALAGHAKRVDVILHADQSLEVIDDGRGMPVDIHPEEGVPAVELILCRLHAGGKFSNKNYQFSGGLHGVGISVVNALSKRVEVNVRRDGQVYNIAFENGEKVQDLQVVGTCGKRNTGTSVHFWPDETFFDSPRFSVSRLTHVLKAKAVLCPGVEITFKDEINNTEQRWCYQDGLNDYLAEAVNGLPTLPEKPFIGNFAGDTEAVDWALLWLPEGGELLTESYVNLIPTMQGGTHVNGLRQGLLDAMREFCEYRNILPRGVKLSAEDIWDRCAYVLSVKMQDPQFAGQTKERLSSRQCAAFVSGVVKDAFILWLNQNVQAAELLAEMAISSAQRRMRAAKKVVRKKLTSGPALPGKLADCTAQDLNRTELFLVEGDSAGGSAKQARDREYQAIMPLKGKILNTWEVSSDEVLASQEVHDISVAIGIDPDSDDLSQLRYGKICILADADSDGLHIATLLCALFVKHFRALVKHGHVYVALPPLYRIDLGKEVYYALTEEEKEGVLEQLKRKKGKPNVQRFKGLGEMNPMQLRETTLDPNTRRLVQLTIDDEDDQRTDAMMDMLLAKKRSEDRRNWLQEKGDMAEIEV", "assay": "Supercoil relaxation assay", "assay_type": "biochemical", "conditions": "100 μM evybactin, 0–20 nM enzyme"}, "[15]": {"molecular_target": "MtbGyrase (Mycobacterium tuberculosis, UniProt P9WG45+P9WG47)", "sequence (P9WG45 whole entry, looked up)": "as the sequence (P9WG45 whole entry, looked up) above", "sequence (P9WG47 whole entry, looked up)": "as the sequence (P9WG47 whole entry, looked up) above", "assay_type": "biochemical"}, "[16]": {"system": "Mycobacterium tuberculosis H37Rv mc^26020", "assay": "MIC, broth microdilution", "assay_type": "cell-based", "conditions": "bleomycin susceptibility, value before the MIC shift"}}, "note": "Starred links: 1 amine or outer side, 2 acyl side, 3 side chain; linkers in the order of their positions; H or OH if unused. Positions of bridges follow the written chain, without caps; N, C: chain ends. Non-standard residues stand in square brackets, D forms with d. Residues, ends and D or L forms follow the SMILES beside them. *: point of attachment. βAsp = O=C(O)[C@H](CC(=O)[*:2])N[*:1]; His(π-Me) = Cn1cncc1C[C@H](N)C(=O)O; For = O=C*", "data": [{"molecule": "C[C@@H](O)[C@H](NC(=O)[C@H](Cc1c[nH]c2ccccc12)NC=O)C(=O)N[C@H](CCCNC(=N)N)C(=O)N[C@@H]1C(=O)N[C@@H](Cc2cncn2C)C(=O)N[C@H](C(=O)O)CC(=O)N[C@H](CO)C(=O)N[C@@H](Cc2ccccc2)C(=O)NCC(=O)N[C@H](CCCNC(=N)N)C(=O)N[C@@H](CO)C(=O)N[C@H](C(=O)O)CC(=O)O[C@@H]1C", "note": "[evybactin] (For-WT[dR]T[His(π-Me)][βAsp][dS]FG[dR]S[βAsp]; ester 4-C)", "values": [{"measurement": "killing ability", "setting": "[1]", "value": "highly bactericidal"}, {"measurement": "toxicity against human cells", "setting": "[2]", "value": "no toxicity"}, {"measurement": "activity against commensal bacteria", "setting": "[3]", "value": "no activity"}, {"measurement": "DNA synthesis (^14C-thymidine incorporation)", "setting": "[4]", "value": "inhibits DNA synthesis"}, {"measurement": "RNA, protein and fatty acid synthesis (label incorporation)", "setting": "[4]", "value": "less of an effect"}, {"measurement": "DNA cleavage", "setting": "[5]", "value": "stimulated DNA cleavage"}, {"measurement": "toxicity against human cells", "setting": "[6]", "value": "no toxicity"}, {"measurement": "supercoiling activity and DNA cleavage", "setting": "[7]", "value": "inhibited the supercoiling activity"}, {"measurement": "DNA cleavage in the absence of ATP", "setting": "[8]", "value": "little to no cleavage"}, {"measurement": "solubility", "setting": "[9]", "value": "> 40", "unit": "mg/mL"}, {"measurement": "toxicity, survival", "setting": "[10]", "value": "no indications of toxicity"}, {"measurement": "effect of vitamin B12 on evybactin susceptibility", "setting": "[11]", "value": "no change in the susceptibility"}, {"measurement": "cell length versus non-treated cells", "setting": "[12]", "value": "approximately two times longer"}, {"measurement": "toxicity against human cells", "setting": "[13]", "value": "no toxicity"}, {"measurement": "DNA cleavage", "setting": "[14]", "value": "stimulated DNA cleavage"}]}, {"molecule": "COc1c(N2C[C@@H]3CCCN[C@@H]3C2)c(F)cc2c(=O)c(C(=O)O)cn(C3CC3)c12", "note": "[moxifloxacin]", "values": [{"measurement": "ATPase rate (Vmax)", "setting": "[15]", "value": "0.4 ± 0.1 molecules of ATP per second per enzyme"}]}, {"molecule": "bleomycin", "values": [{"measurement": "MIC (before shift)", "setting": "[16]", "value": 0.06, "unit": "µg/mL"}]}]}
